System: 5637
Assay: Inhibition of type-1 pilus-mediated Escherichia coli HB101 adhesion to human 5637 cells after 1 hr
Assay type: cell-based
Conditions: dose or concentration not given here

SMILES: CN(C)Cc1c(Cc2cccc3ccccc23)c(-c2ccccc2)c2n(c1=O)[C@H](C(=O)O)CS2
- inhibition: 90%

Source: ChEMBL document CHEMBL1221206, “Targeting virulence: a new paradigm for antimicrobial therapy” (Nat Chem Biol, 2007)
